From the NIST ThermoML archive (doi:10.1016/j.jct.2017.07.008)
Several values for one entry are separate records, joined by “and”; a condition that tells them apart may be missing. Identical values can stand only once. ± gives the expanded uncertainty stated by the source.

Settings: for mass density / viscosity / speed of sound / vapor or sublimation pressure: Liquid; for mass density: Vibrating tube method; for surface tension liquid-gas: Drop volume; for viscosity: Capillary tube (Ostwald / Ubbelohde) method; for speed of sound: Frequency=3 MHz, Single path-length method; for vapor or sublimation pressure: Ebulliometric method (Recirculating still)

## O=Cc1cccs1 [2-thiophenealdehyde]
313.15 K, 65000 kPa
  mass density: 1238.47 ± 0.98 kg/m3
315.65 K
  surface tension liquid-gas: 43.89 ± 0.32 mN/m
315.65 K, 100 kPa
  viscosity: 1.528 ± 0.018 mPa·s
  speed of sound: 1404.1 ± 0.95 m/s
  mass density: 1199.69 ± 0.57 kg/m3
318.15 K
  surface tension liquid-gas: 43.6 ± 0.32 mN/m
318.15 K, 100 kPa
  viscosity: 1.473 ± 0.018 mPa·s
  speed of sound: 1395.9 ± 0.95 m/s
  mass density: 1197.17 ± 0.57 kg/m3 and 1197.16 ± 0.57 kg/m3
318.15 K, 2000 kPa
  mass density: 1198.45 ± 0.57 kg/m3
318.15 K, 5000 kPa
  mass density: 1200.45 ± 0.58 kg/m3
318.15 K, 7000 kPa
  mass density: 1201.76 ± 0.59 kg/m3
318.15 K, 10000 kPa
  mass density: 1203.7 ± 0.6 kg/m3
318.15 K, 15000 kPa
  mass density: 1206.86 ± 0.63 kg/m3
318.15 K, 20000 kPa
  mass density: 1209.92 ± 0.65 kg/m3
318.15 K, 25000 kPa
  mass density: 1212.9 ± 0.68 kg/m3
318.15 K, 30000 kPa
  mass density: 1215.8 ± 0.71 kg/m3
318.15 K, 35000 kPa
  mass density: 1218.62 ± 0.74 kg/m3
318.15 K, 40000 kPa
  mass density: 1221.37 ± 0.77 kg/m3
318.15 K, 45000 kPa
  mass density: 1224.05 ± 0.81 kg/m3
318.15 K, 50000 kPa
  mass density: 1226.67 ± 0.85 kg/m3
318.15 K, 55000 kPa
  mass density: 1229.23 ± 0.88 kg/m3
318.15 K, 60000 kPa
  mass density: 1231.73 ± 0.92 kg/m3
318.15 K, 65000 kPa
  mass density: 1234.18 ± 0.96 kg/m3
320.65 K
  surface tension liquid-gas: 43.28 ± 0.32 mN/m
320.65 K, 100 kPa
  viscosity: 1.418 ± 0.017 mPa·s
  speed of sound: 1387.6 ± 0.95 m/s
  mass density: 1194.65 ± 0.56 kg/m3
323.15 K
  surface tension liquid-gas: 43.01 ± 0.32 mN/m
323.15 K, 100 kPa
  viscosity: 1.375 ± 0.017 mPa·s
  speed of sound: 1379.3 ± 0.95 m/s
  mass density: 1192.12 ± 0.56 kg/m3
323.15 K, 2000 kPa
  mass density: 1193.44 ± 0.57 kg/m3
323.15 K, 5000 kPa
  mass density: 1195.49 ± 0.58 kg/m3
323.15 K, 7000 kPa
  mass density: 1196.83 ± 0.59 kg/m3
323.15 K, 10000 kPa
  mass density: 1198.82 ± 0.6 kg/m3
323.15 K, 15000 kPa
  mass density: 1202.04 ± 0.62 kg/m3
323.15 K, 20000 kPa
  mass density: 1205.17 ± 0.65 kg/m3
323.15 K, 25000 kPa
  mass density: 1208.22 ± 0.68 kg/m3
323.15 K, 30000 kPa
  mass density: 1211.17 ± 0.7 kg/m3
323.15 K, 35000 kPa
  mass density: 1214.05 ± 0.73 kg/m3
323.15 K, 40000 kPa
  mass density: 1216.86 ± 0.77 kg/m3
323.15 K, 45000 kPa
  mass density: 1219.59 ± 0.8 kg/m3
323.15 K, 50000 kPa
  mass density: 1222.26 ± 0.84 kg/m3
323.15 K, 55000 kPa
  mass density: 1224.86 ± 0.87 kg/m3
323.15 K, 60000 kPa
  mass density: 1227.41 ± 0.91 kg/m3
323.15 K, 65000 kPa
  mass density: 1229.89 ± 0.95 kg/m3
325.65 K
  surface tension liquid-gas: 42.68 ± 0.32 mN/m
325.65 K, 100 kPa
  viscosity: 1.325 ± 0.016 mPa·s
  speed of sound: 1371.1 ± 0.95 m/s
  mass density: 1189.6 ± 0.56 kg/m3
328.15 K
  surface tension liquid-gas: 42.39 ± 0.32 mN/m
328.15 K, 100 kPa
  viscosity: 1.275 ± 0.015 mPa·s
  speed of sound: 1362.8 ± 0.95 m/s
  mass density: 1187.08 ± 0.56 kg/m3 and 1187.07 ± 0.56 kg/m3
328.15 K, 2000 kPa
  mass density: 1188.42 ± 0.57 kg/m3
328.15 K, 5000 kPa
  mass density: 1190.52 ± 0.58 kg/m3
328.15 K, 7000 kPa
  mass density: 1191.9 ± 0.59 kg/m3
328.15 K, 10000 kPa
  mass density: 1193.93 ± 0.6 kg/m3
328.15 K, 15000 kPa
  mass density: 1197.23 ± 0.62 kg/m3
328.15 K, 20000 kPa
  mass density: 1200.43 ± 0.64 kg/m3
328.15 K, 25000 kPa
  mass density: 1203.54 ± 0.67 kg/m3
328.15 K, 30000 kPa
  mass density: 1206.56 ± 0.7 kg/m3
328.15 K, 35000 kPa
  mass density: 1209.49 ± 0.73 kg/m3
328.15 K, 40000 kPa
  mass density: 1212.35 ± 0.76 kg/m3
328.15 K, 45000 kPa
  mass density: 1215.13 ± 0.79 kg/m3
328.15 K, 50000 kPa
  mass density: 1217.85 ± 0.83 kg/m3
328.15 K, 55000 kPa
  mass density: 1220.5 ± 0.87 kg/m3
328.15 K, 60000 kPa
  mass density: 1223.09 ± 0.9 kg/m3
328.15 K, 65000 kPa
  mass density: 1225.62 ± 0.94 kg/m3
330.65 K
  surface tension liquid-gas: 42.09 ± 0.31 mN/m
330.65 K, 100 kPa
  viscosity: 1.233 ± 0.015 mPa·s
  speed of sound: 1354.6 ± 0.95 m/s
  mass density: 1184.55 ± 0.56 kg/m3
333.15 K
  surface tension liquid-gas: 41.76 ± 0.31 mN/m
333.15 K, 100 kPa
  viscosity: 1.194 ± 0.014 mPa·s
  speed of sound: 1346.4 ± 0.95 m/s
  mass density: 1182.02 ± 0.56 kg/m3
333.15 K, 2000 kPa
  mass density: 1183.41 ± 0.57 kg/m3
333.15 K, 5000 kPa
  mass density: 1185.56 ± 0.58 kg/m3
333.15 K, 7000 kPa
  mass density: 1186.96 ± 0.58 kg/m3
333.15 K, 10000 kPa
  mass density: 1189.04 ± 0.6 kg/m3
333.15 K, 15000 kPa
  mass density: 1192.42 ± 0.62 kg/m3
333.15 K, 20000 kPa
  mass density: 1195.69 ± 0.64 kg/m3
333.15 K, 25000 kPa
  mass density: 1198.86 ± 0.67 kg/m3
333.15 K, 30000 kPa
  mass density: 1201.94 ± 0.69 kg/m3
333.15 K, 35000 kPa
  mass density: 1204.93 ± 0.72 kg/m3
333.15 K, 40000 kPa
  mass density: 1207.85 ± 0.75 kg/m3
333.15 K, 45000 kPa
  mass density: 1210.68 ± 0.79 kg/m3
333.15 K, 50000 kPa
  mass density: 1213.45 ± 0.82 kg/m3
333.15 K, 55000 kPa
  mass density: 1216.14 ± 0.86 kg/m3
333.15 K, 60000 kPa
  mass density: 1218.77 ± 0.89 kg/m3
333.15 K, 65000 kPa
  mass density: 1221.34 ± 0.93 kg/m3
335.65 K
  surface tension liquid-gas: 41.46 ± 0.31 mN/m
335.65 K, 100 kPa
  viscosity: 1.155 ± 0.014 mPa·s
  speed of sound: 1338.2 ± 0.95 m/s
  mass density: 1179.49 ± 0.56 kg/m3
336.42 K
  vapor or sublimation pressure: 0.66 ± 0.1 kPa
338.15 K
  surface tension liquid-gas: 41.21 ± 0.31 mN/m
338.15 K, 100 kPa
  viscosity: 1.121 ± 0.014 mPa·s
  speed of sound: 1330.2 ± 0.95 m/s
  mass density: 1176.97 ± 0.56 kg/m3
338.15 K, 2000 kPa
  mass density: 1178.39 ± 0.57 kg/m3
338.15 K, 5000 kPa
  mass density: 1180.59 ± 0.58 kg/m3
338.15 K, 7000 kPa
  mass density: 1182.03 ± 0.58 kg/m3
338.15 K, 10000 kPa
  mass density: 1184.16 ± 0.59 kg/m3
338.15 K, 15000 kPa
  mass density: 1187.61 ± 0.61 kg/m3
338.15 K, 20000 kPa
  mass density: 1190.94 ± 0.64 kg/m3
338.15 K, 25000 kPa
  mass density: 1194.18 ± 0.66 kg/m3
338.15 K, 30000 kPa
  mass density: 1197.32 ± 0.69 kg/m3
338.15 K, 35000 kPa
  mass density: 1200.37 ± 0.72 kg/m3
338.15 K, 40000 kPa
  mass density: 1203.34 ± 0.75 kg/m3
338.15 K, 45000 kPa
  mass density: 1206.23 ± 0.78 kg/m3
338.15 K, 50000 kPa
  mass density: 1209.04 ± 0.81 kg/m3
338.15 K, 55000 kPa
  mass density: 1211.78 ± 0.85 kg/m3
338.15 K, 60000 kPa
  mass density: 1214.46 ± 0.88 kg/m3
338.15 K, 65000 kPa
  mass density: 1217.07 ± 0.92 kg/m3
340.7 K
  vapor or sublimation pressure: 0.85 ± 0.1 kPa
345.63 K
  vapor or sublimation pressure: 1.135 ± 0.1 kPa
349.65 K
  vapor or sublimation pressure: 1.4 ± 0.1 kPa
353.7 K
  vapor or sublimation pressure: 1.725 ± 0.1 kPa
356.19 K
  vapor or sublimation pressure: 1.915 ± 0.1 kPa
359.55 K
  vapor or sublimation pressure: 2.265 ± 0.1 kPa
361.67 K
  vapor or sublimation pressure: 2.55 ± 0.1 kPa
364.68 K
  vapor or sublimation pressure: 2.925 ± 0.1 kPa
366.94 K
  vapor or sublimation pressure: 3.265 ± 0.1 kPa
368.98 K
  vapor or sublimation pressure: 3.6 ± 0.1 kPa
372.07 K
  vapor or sublimation pressure: 4.14 ± 0.1 kPa
374.68 K
  vapor or sublimation pressure: 4.645 ± 0.1 kPa
376.79 K
  vapor or sublimation pressure: 5.065 ± 0.1 kPa
377.74 K
  vapor or sublimation pressure: 5.3 ± 0.1 kPa
379.92 K
  vapor or sublimation pressure: 5.8 ± 0.1 kPa
382.69 K
  vapor or sublimation pressure: 6.5 ± 0.1 kPa
386.72 K
  vapor or sublimation pressure: 7.585 ± 0.1 kPa
389.41 K
  vapor or sublimation pressure: 8.415 ± 0.1 kPa
391.94 K
  vapor or sublimation pressure: 9.285 ± 0.1 kPa
394.82 K
  vapor or sublimation pressure: 10.41 ± 0.1 kPa
399.42 K
  vapor or sublimation pressure: 12.29 ± 0.1 kPa
401.02 K
  vapor or sublimation pressure: 13.11 ± 0.1 kPa
403 K
  vapor or sublimation pressure: 14.06 ± 0.1 kPa
404.9 K
  vapor or sublimation pressure: 15.05 ± 0.1 kPa
407.06 K
  vapor or sublimation pressure: 16.14 ± 0.1 kPa
408.95 K
  vapor or sublimation pressure: 17.25 ± 0.1 kPa
411.16 K
  vapor or sublimation pressure: 18.6 ± 0.1 kPa
412.82 K
  vapor or sublimation pressure: 19.66 ± 0.1 kPa
413.9 K
  vapor or sublimation pressure: 20.41 ± 0.1 kPa
415.91 K
  vapor or sublimation pressure: 21.8 ± 0.11 kPa
418.01 K
  vapor or sublimation pressure: 23.36 ± 0.11 kPa
420.05 K
  vapor or sublimation pressure: 24.95 ± 0.11 kPa
422.07 K
  vapor or sublimation pressure: 26.6 ± 0.11 kPa
424.04 K
  vapor or sublimation pressure: 28.25 ± 0.11 kPa
426.15 K
  vapor or sublimation pressure: 30.11 ± 0.11 kPa
428.14 K
  vapor or sublimation pressure: 32.01 ± 0.11 kPa
429.02 K
  vapor or sublimation pressure: 32.92 ± 0.11 kPa
430.17 K
  vapor or sublimation pressure: 34.05 ± 0.11 kPa
431.54 K
  vapor or sublimation pressure: 35.47 ± 0.11 kPa
433.17 K
  vapor or sublimation pressure: 37.2 ± 0.11 kPa
